The results in this text go back to a melting point compilation (Tetko et al.; mined from patent text by program, amines drawn as free bases though some values may be those of a salt).

SMILES strings stand for the structures.

As to `CC(C)(C)Nc1c(NCc2ccccc2F)c(=O)c1=O`, the melting point was 260 to 262 °C. `COC(=O)c1ccc(Cl)c(C)c1N` registered a melting point of 72 to 74 °C.

The compound `Cc1ccc(NC(N)=S)nc1` came in with a melting point of 178 to 181 °C. Consider `COc1ccc(C(=C/C=C/C(=O)NCCCc2cccc3ccncc23)c2ccc(OC)cc2)cc1`, for which the melting point is 115 to 118 °C. The value for `CCN(CC)c1ncc(C(=O)O)c2[nH]nc(C)c12` was 85 to 88 °C. `Cc1cccc2c1SC1(CCOC1=O)C2=O` (stereo not drawn) registered a melting point of 98.5 to 99.5 °C. As for `CC(=O)c1ccc(S(=O)(=O)C[N+](=O)[O-])cc1`, the melting point fell in the range of 94 to 95 °C. In turn, `COc1ccccc1OCC1SCCN1S(C)(=O)=O` (stereo not drawn) had a melting point of 118 to 120 °C. The compound `ClCCn1c(-c2ccccc2)nc2cc(CN3CCN(C(c4ccccc4)c4ccccc4)CC3)ccc21` showed a melting point of 174 to 180 °C. In turn, `COC[C@H]1CN(c2ccc([C@H]3CC[C@H](OCSC)CC3)cc2)C(=O)O1` came in with a melting point of 54 to 56 °C. On to `N#Cc1ccc2oc(-c3ccccc3)cc2c1`, for which the melting point was 138 to 141 °C. In the case of `Cc1ccccc1C(=O)NC(NC(=O)Nc1cccnc1)C(Cl)(Cl)Cl` (stereo not drawn), the melting point fell in the range of 182 to 184 °C. With `Nc1nc2nc(-c3ccccc3)[nH]c2c2ncnn12`, the melting point was above 350 °C. `CCOC(=O)C(=CNc1cc(C)nn1CC)C(=O)OCC` gave a melting point of 60 to 67 °C. With `CC(C)N(c1cccc2cc(-c3ncc(CCl)s3)[nH]c12)S(=O)(=O)c1cccs1`, the melting point lay in the range of 184 to 185 °C. The value for `COc1cnc(-c2cccn3nc(C4(C5CCNCC5)C=CC(N)=CC4)nc23)cn1` (stereo not drawn) was 219 to 221 °C; that for `CCN1C(=O)C(=CC=C2C=C3N(C)c4ccccc4N3CC2)SC1=S` was 275 °C; that for `CC=CC(=O)Nc1ccc(-c2ccncc2)cc1` was 247 to 249 °C. `O=C(N[C@H]1CC[C@@H](C(=O)Oc2ccc3c(c2)CCC3)CC1)OCc1ccccc1`: the melting point was 68 to 69 °C. In turn, `OCCCc1cnoc1-c1ccc(C(F)(F)F)cc1` yielded a melting point of 85 to 86 °C. `CCCCCCC(O)Cn1ccnc1` (stereo not drawn): the melting point lay within 44 to 45.5 °C.

In the case of `CCCCc1c(/C=C/C(=O)NCCCCCCc2cncnc2)cc(OC)c2ccccc12`, the melting point was in the range of 128 to 129 °C. With `Cc1cc(SC2=C(O)CC(CCc3ccccn3)(C(C)C)OC2=O)c(C(C)(C)C)cc1CO` (stereo not drawn), the melting point was in the range of 100 to 110 °C. In turn, `COc1ccc(CNCCCOc2ccc(S(=O)(=O)c3c(C(C)C)cn4ccccc34)cc2)cc1OC` had a melting point of 109 to 111 °C.

The compound `O=C1CCCC(=O)C1=CC=Cc1ccccc1` yielded a melting point of 116 to 118 °C. Consider `CCCCCCCCCCCCCCCCCNC(=O)OC[C@@H]1CO[C@@H](COC(=O)NCc2ccccn2)C1` (relative stereo), for which the melting point was in the range of 52.7 to 54.8 °C. With `Cc1ccccc1N1CCN(Cc2ccc(Nc3ccnc4cc(C(F)(F)F)ccc34)cc2)CC1`, the melting point fell in the range of 208 to 210 °C. Regarding `COc1cc2c(c(OC(C)=O)c1)C1CCC3(C)C(=O)CCC3C1CC2` (stereo not drawn), the melting point lay within 144 to 145 °C. The value for `Cc1nc2c(Cl)cc(Cl)cc2c(=O)n1C1CCC(=O)NC1=O` (stereo not drawn) was 238 to 240 °C. The compound `CCOC(=O)CSc1cc(NS(=O)(=O)c2cccs2)c2ccccc2c1O` returned a melting point of 116 to 118 °C. As for `COc1c(N2CCO[C@@H](CN(C)C)C2)c(F)cc2c(=O)c(C(=O)O)cn(C3CC3)c12`, the melting point was 146 to 147 °C. Next, `CC(O)c1ccc(NS(C)(=O)=O)c(Nc2ccc(F)cc2F)c1` (stereo not drawn): 192 to 193 °C; `CSCc1nn(-c2c(Cl)cc(C(F)(F)F)cc2Cl)nc1C=NC(C#N)=C(N)C#N`: 237 to 239 °C.

`COc1cc(Nc2ncc(C#N)c(-c3ccc(CO)cc3)n2)cc(OC)c1OC` had a melting point of 188 to 191 °C. The compound `CCC1(c2ccccc2)C(=O)N(CCO)C(=O)N(CCO)C1=O` had a melting point of 107 to 109 °C. The value for `CC(=O)N1CCN=C1Nc1cc(C)nn1-c1ccc(Cl)cc1C` was 195 °C; that for `CC(C)C(=O)NCCNCC(O)COc1ccc(O)c(CO)c1` (stereo not drawn) was 148 to 149 °C. `CCCc1nc(OC)c(NC(=O)N2CCN(c3cc(C)cc(C)c3)CC2)cc1C(=O)NC(C)C(=O)Nc1cc(CO)cc(Nc2c3ccccc3nc3ccccc23)c1` (stereo not drawn) showed a melting point of 195 to 197 °C. The compound `Clc1cccc(Nn2cnc3c2CCCC3)c1` displayed a melting point of 180 °C. The compound `COCCCNc1nc2cc(Cl)c(Cl)cc2nc1-c1ccccn1` displayed a melting point of 99.5 to 100 °C.

Consider `CN1CCN(c2cc(N)ccc2F)CC1`, for which the melting point was in the range of 155 to 156 °C.

`COc1ncnc(-c2cc([N+](=O)[O-])c(C#N)cc2F)c1C`: the melting point lay in the range of 129 to 131 °C.

As for `O=C(O)CCCNC(=O)S[C@@H]1CC(=O)N(Cc2ccc(Oc3ccc(F)cc3)nc2)C1`, the melting point lay in the range of 131 to 132 °C. The compound `CCOC(=O)Cc1ccc(-c2nc(COc3ccc(COc4nn(-c5ccccc5)cc4/C=C/c4coc(CC)n4)cc3OC)c(C)o2)cc1` returned a melting point of 155 to 157 °C. Next, `CCc1nc2c(C)cc(C)nc2n1Cc1ccc(C(Cc2nnn[nH]2)c2ccc(OC)cc2)cc1` (stereo not drawn): 96 to 99 °C. With `Cc1ccc(Oc2cccc(C3C4=C(CC(C)(C)CC4=O)NC4=C3C(=O)CC(C)(C)C4)c2)cc1`, the melting point lay within 202 to 203 °C. The value for `CCN1CC2OC(C3OCCO3)(C1)c1ccccc12` (stereo not drawn) was 107 to 108 °C; that for `CN1C(=O)[C@H](NC(=O)/C=C/c2ccc([N+](=O)[O-])cc2)N=C(c2ccccc2)c2ccccc21` was 165 to 166 °C.

`NS(=O)(=S)CCCc1ccccc1` (stereo not drawn) returned a melting point of 98 to 101 °C. The value for `Cc1ccc(Sc2ccc3c(c2)CC[C@H]2N(C)C(=O)CC[C@]32C)cc1` was 154 to 156 °C. For `CC(=O)Oc1ccc(Cc2n[nH]c3c2c(=O)n(-c2ccccc2)c2ncccc32)cc1`, the melting point is 278 to 282 °C.

In turn, `CCN(C)c1ccc(Cn2nnc(-c3ccc(OC(=O)C(C)(C)C)cc3)n2)cc1` had a melting point of 122 to 125 °C.

`CC(n1cncn1)C(O)(COc1ccc(F)cc1)C(C)(C)C` (stereo not drawn) returned a melting point of 85 to 100 °C.

For `Cc1cc(C)n(Cc2ccc(OCc3nc(-c4ccccc4)oc3C)cc2)n1`, the melting point lay within 86 to 87 °C. Take `O=C1NC(=O)c2c1c(-c1ccccc1Cl)cc1c2c(Br)cn1CCCO`: the melting point was 121 to 123 °C. The compound `NC(=O)c1ccc(C(=C2CC3CCC(C2)N3CCc2ccccc2)c2ccccc2)cc1` gave a melting point of 210 to 212 °C. `COC=C1CCC(C#N)(c2ccc(OC)c3c2OCCO3)CC1` (stereo not drawn) came in with a melting point of 112 to 113 °C.

`O=C1c2cccnc2N(N2CCCCCC2)C2=NCCN12` registered a melting point of 217 to 219 °C. The value for `CCOc1cc2cc(C(=O)OC)c(C(=O)OC)c(-c3ccnc(Cl)c3)c2cc1OC` was 205 to 208 °C. Next, `COc1cc2ncnc(N3CCN(C(=S)NCc4ccc(C(F)(F)F)cc4)CC3)c2cc1OC`: 216 to 217 °C; `CCCCNc1cc(C(N)=O)cc(S(N)(=O)=O)c1Oc1ccccc1`: 223 to 224 °C; `CC(=NNC(=O)c1ccc(C(F)(F)F)cc1)c1ccncc1`: 198 °C. Compound `CCCOc1ccc(C(C)=O)cc1C(=O)OC` had a melting point of 49 °C.
